Test results published in ChEMBL document CHEMBL1909046, “DrugMatrix in vitro pharmacology data”.

Assays:
B2 bradykinin receptor = target: T1, B2 bradykinin receptor (Homo sapiens, UniProt P30411); format: cell membranes, Membrane; settings: chem-1; also: in other assays of this panel Not Active means under 50% inhibition at 10 µM
T1 sequence (P30411 whole entry): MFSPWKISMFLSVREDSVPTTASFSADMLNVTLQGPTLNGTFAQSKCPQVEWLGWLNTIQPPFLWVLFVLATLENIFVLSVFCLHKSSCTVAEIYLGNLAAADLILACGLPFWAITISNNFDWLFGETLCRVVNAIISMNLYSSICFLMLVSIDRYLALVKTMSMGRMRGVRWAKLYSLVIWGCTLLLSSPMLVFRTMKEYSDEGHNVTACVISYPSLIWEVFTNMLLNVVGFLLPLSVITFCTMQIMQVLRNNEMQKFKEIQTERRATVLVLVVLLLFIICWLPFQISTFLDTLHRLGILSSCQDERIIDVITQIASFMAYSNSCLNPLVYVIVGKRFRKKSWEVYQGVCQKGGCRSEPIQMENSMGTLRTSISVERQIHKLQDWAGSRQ

[1] = target: T2, 5-hydroxytryptamine receptor 2C (Homo sapiens, UniProt P28335); assay: DRUGMATRIX: Serotonin (5-Hydroxytryptamine) 5-HT2C radioligand binding (ligand: [3H] Mesulergine); format: cell membranes, CHO-K1, Membrane; settings: cho-k1; Not Active = under 50% inhibition at 10 µM
T2 sequence (P28335 whole entry): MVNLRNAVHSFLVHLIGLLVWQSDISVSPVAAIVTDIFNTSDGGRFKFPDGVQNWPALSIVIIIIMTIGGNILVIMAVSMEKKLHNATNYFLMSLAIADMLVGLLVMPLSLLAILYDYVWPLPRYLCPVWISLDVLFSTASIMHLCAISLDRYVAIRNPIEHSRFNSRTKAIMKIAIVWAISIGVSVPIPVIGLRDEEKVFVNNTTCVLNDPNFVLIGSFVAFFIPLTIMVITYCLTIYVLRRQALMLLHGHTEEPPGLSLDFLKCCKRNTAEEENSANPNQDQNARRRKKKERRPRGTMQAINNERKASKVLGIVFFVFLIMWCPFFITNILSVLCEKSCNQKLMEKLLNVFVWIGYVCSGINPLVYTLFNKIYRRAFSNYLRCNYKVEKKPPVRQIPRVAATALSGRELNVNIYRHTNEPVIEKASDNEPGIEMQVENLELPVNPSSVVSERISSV

[2] = DRUGMATRIX: Calcium Channel Type L, Phenylalkylamine radioligand binding (ligand: [3H] (-)-Desmethoxyverapamil (D-888)); format: cell membranes, Rattus norvegicus, Wistar, Brain, Membrane; settings: Not Active = under 50% inhibition at 10 µM
[3] = target: T3, C-C chemokine receptor type 4 (Homo sapiens, UniProt P51679); format: cell membranes, Chem-1, Membrane; settings: chem-1; also: in other assays of this panel Not Active means under 50% inhibition at 10 µM
T3 sequence (P51679 whole entry): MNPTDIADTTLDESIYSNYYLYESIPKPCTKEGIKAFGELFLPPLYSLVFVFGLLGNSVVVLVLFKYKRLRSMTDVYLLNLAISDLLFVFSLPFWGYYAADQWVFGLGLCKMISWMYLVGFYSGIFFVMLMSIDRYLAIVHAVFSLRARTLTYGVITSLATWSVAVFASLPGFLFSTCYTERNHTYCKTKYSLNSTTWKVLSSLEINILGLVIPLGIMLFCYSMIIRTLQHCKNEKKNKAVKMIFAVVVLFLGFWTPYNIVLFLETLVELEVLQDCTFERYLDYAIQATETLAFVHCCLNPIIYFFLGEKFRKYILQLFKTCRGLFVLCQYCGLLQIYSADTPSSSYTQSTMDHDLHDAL

[4] = target: T4, C-X-C chemokine receptor type 1 (Homo sapiens, UniProt P25024); also: in other assays of this panel Not Active means under 50% inhibition at 10 µM
T4 sequence (P25024 whole entry): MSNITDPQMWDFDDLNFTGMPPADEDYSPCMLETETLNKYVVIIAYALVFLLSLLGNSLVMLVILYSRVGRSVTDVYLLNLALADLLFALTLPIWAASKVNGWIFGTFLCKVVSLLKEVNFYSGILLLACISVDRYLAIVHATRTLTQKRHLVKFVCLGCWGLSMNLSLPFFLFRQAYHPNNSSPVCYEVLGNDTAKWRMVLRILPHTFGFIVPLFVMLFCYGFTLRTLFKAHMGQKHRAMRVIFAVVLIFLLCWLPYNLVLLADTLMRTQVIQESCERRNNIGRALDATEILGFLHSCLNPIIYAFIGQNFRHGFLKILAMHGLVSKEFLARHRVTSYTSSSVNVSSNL

Leukotriene C4 synthase = target: T5, Leukotriene C4 synthase (Cavia porcellus, UniProt A6XA80); assay: biochemical; format: tissue-based, Lung;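 also: enzyme inhibition assay of leukotriene C4 synthase, using LTA4 as the substrate; in other assays of this panel Not Active means under 50% inhibition at 10 µM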
T5 sequence (A6XA80 whole entry): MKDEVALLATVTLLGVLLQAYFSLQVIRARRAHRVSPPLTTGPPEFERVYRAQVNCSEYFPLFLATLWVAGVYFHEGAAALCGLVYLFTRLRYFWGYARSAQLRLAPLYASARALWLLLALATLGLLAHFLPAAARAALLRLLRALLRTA

Interstitial collagenase = target: T6, Interstitial collagenase (Homo sapiens, UniProt P03956); assay: biochemical; format: tissue-based, Rheumatoid synovial fibroblasts
T6 sequence (P03956 whole entry): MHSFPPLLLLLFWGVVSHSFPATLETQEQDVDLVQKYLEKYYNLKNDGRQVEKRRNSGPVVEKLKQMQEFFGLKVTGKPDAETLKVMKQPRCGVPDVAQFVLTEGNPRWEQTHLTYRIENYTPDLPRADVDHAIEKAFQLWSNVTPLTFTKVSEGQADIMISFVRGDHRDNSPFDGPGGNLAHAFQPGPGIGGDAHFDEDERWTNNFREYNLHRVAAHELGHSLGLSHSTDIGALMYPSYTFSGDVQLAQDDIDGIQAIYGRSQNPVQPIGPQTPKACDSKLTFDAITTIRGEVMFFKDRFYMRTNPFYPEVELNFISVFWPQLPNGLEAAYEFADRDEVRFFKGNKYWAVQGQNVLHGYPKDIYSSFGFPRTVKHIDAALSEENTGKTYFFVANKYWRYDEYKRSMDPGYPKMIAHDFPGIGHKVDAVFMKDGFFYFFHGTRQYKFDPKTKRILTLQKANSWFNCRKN

Estrogen receptor beta = Estrogen receptor beta (Homo sapiens, UniProt Q92731); settings: sf9; also: in other assays of this panel Not Active means under 50% inhibition at 10 µM
Estrogen receptor beta, sequence (Q92731 whole entry): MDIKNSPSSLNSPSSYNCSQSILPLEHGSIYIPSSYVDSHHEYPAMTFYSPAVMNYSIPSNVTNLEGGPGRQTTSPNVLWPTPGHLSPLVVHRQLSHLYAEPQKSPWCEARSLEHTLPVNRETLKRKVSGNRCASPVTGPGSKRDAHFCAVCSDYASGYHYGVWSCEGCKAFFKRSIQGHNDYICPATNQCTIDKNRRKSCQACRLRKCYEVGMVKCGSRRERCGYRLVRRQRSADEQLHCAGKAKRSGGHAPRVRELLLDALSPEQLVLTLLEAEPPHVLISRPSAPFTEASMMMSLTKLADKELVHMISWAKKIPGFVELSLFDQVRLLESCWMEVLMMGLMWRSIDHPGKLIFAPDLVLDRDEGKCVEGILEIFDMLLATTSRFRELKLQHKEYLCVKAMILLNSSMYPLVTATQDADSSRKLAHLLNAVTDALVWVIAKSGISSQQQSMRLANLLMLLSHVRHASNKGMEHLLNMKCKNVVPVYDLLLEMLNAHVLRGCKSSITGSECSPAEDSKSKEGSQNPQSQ

Nc1nc(F)nc2c1ncn2[C@@H]1O[C@H](CO)[C@@H](O)[C@@H]1O [FLUDARABINE]
Not Active: IC50 (B2 bradykinin receptor) | IC50 [1] | IC50 [2] | Ki [2] | IC50 [3] | IC50 [4] | IC50 (Leukotriene C4 synthase) | IC50 (Interstitial collagenase) | IC50 (Estrogen receptor beta)

OC[C@H]1OC2C3[C@@H](CO)OC(O[C@H]4[C@H](O)[C@@H](O)[C@@H](O[C@H]5[C@H](O)[C@@H](O)[C@@H](O[C@H]6[C@H](O)[C@@H](O)[C@@H](O[C@H]7[C@H](O)[C@@H](O)[C@@H](O[C@H]8[C@H](O)[C@@H](O)[C@@H](O[C@H]9[C@H](O)[C@@H](O)C(OC1[C@H](O)[C@H]2O)O[C@@H]9CO)O[C@@H]8CO)O[C@@H]7CO)O[C@@H]6CO)O[C@@H]5CO)O[C@@H]4CO)[C@H](O)[C@H]3O
Not Active: IC50 (B2 bradykinin receptor) | IC50 [1] | IC50 [2] | Ki [2] | IC50 [3] | IC50 [4] | IC50 (Leukotriene C4 synthase) | IC50 (Interstitial collagenase) | IC50 (Estrogen receptor beta)

C[C@]12CC[C@@H](O)C[C@@H]1CC[C@@H]1[C@@H]2CC[C@]2(C)C(=O)CC[C@@H]12 [ANDROSTERONE]
Not Active: IC50 (B2 bradykinin receptor) | IC50 [1] | IC50 [2] | Ki [2] | IC50 [3] | IC50 [4] | IC50 (Leukotriene C4 synthase) | IC50 (Interstitial collagenase) | IC50 (Estrogen receptor beta)

C#C[C@]1(O)CC[C@H]2[C@@H]3CCC4=CC(=O)CC[C@@H]4[C@H]3CC[C@@]21C [NORETHINDRONE]
Not Active: IC50 (B2 bradykinin receptor) | IC50 [1] | IC50 [2] | Ki [2] | IC50 [3] | IC50 [4] | IC50 (Leukotriene C4 synthase) | IC50 (Interstitial collagenase) | IC50 (Estrogen receptor beta)

O=C(Nc1ccc(Cl)c(Cl)c1)c1cc(Cl)cc(Cl)c1O [3,3',4',5-TETRACHLOROSALICYLANILIDE]
Not Active: IC50 (B2 bradykinin receptor) | IC50 [1] | IC50 [2] | Ki [2] | IC50 [3] | IC50 [4] | IC50 (Leukotriene C4 synthase) | IC50 (Interstitial collagenase) | IC50 (Estrogen receptor beta)

CCN(CCO)CCCC(C)Nc1ccnc2cc(Cl)ccc12 (stereo not drawn) [HYDROXYCHLOROQUINE]
Not Active: IC50 (B2 bradykinin receptor) | IC50 [1] | IC50 [2] | Ki [2] | IC50 [3] | IC50 [4] | IC50 (Leukotriene C4 synthase) | IC50 (Interstitial collagenase) | IC50 (Estrogen receptor beta)

CC1(COc2ccc(CC3SC(=O)NC3=O)cc2)CCCCC1 (stereo not drawn) [CIGLITAZONE]
Not Active: IC50 (B2 bradykinin receptor) | IC50 [1] | IC50 [2] | Ki [2] | IC50 [3] | IC50 [4] | IC50 (Leukotriene C4 synthase) | IC50 (Interstitial collagenase) | IC50 (Estrogen receptor beta)

COc1cc([C@@H]2c3cc4c(cc3[C@H](O)[C@H]3COC(=O)[C@H]23)OCO4)cc(OC)c1OC [PODOFILOX]
Not Active: IC50 (B2 bradykinin receptor) | IC50 [1] | IC50 [2] | Ki [2] | IC50 [3] | IC50 [4] | IC50 (Leukotriene C4 synthase) | IC50 (Interstitial collagenase) | IC50 (Estrogen receptor beta)

COC(=O)C[C@](O)(CCC(C)(C)O)C(=O)O[C@@H]1C(OC)=C[C@]23CCCN2CCc2cc4c(cc2[C@H]13)OCO4 [HARRINGTONINE]
Not Active: IC50 (B2 bradykinin receptor) | IC50 [1] | IC50 [2] | Ki [2] | IC50 [3] | IC50 [4] | IC50 (Leukotriene C4 synthase) | IC50 (Interstitial collagenase) | IC50 (Estrogen receptor beta)

CCCCCCNC(=O)n1cc(F)c(=O)[nH]c1=O [CARMOFUR]
Not Active: IC50 (B2 bradykinin receptor) | IC50 [1] | IC50 [2] | Ki [2] | IC50 [3] | IC50 [4] | IC50 (Leukotriene C4 synthase) | IC50 (Interstitial collagenase) | IC50 (Estrogen receptor beta)

O=C(O)CO [GLYCOLIC ACID]
Not Active: IC50 (B2 bradykinin receptor) | IC50 [1] | IC50 [2] | Ki [2] | IC50 [3] | IC50 [4] | IC50 (Leukotriene C4 synthase) | IC50 (Interstitial collagenase) | IC50 (Estrogen receptor beta)

CC(C)Cc1ccc([C@H](C)C(=O)O)cc1 [DEXIBUPROFEN]
Not Active: IC50 (B2 bradykinin receptor) | IC50 [1] | IC50 [2] | Ki [2] | IC50 [3] | IC50 [4] | IC50 (Leukotriene C4 synthase) | IC50 (Interstitial collagenase) | IC50 (Estrogen receptor beta)

CC(C)(C#N)c1cc(Cn2cncn2)cc(C(C)(C)C#N)c1 [ANASTROZOLE]
Not Active: IC50 (B2 bradykinin receptor) | IC50 [1] | IC50 [2] | Ki [2] | IC50 [3] | IC50 [4] | IC50 (Leukotriene C4 synthase) | IC50 (Interstitial collagenase) | IC50 (Estrogen receptor beta)

NC(=O)NC(=O)Cc1ccccc1 [PHENACEMIDE]
Not Active: IC50 (B2 bradykinin receptor) | IC50 [1] | IC50 [2] | Ki [2] | IC50 [3] | IC50 [4] | IC50 (Leukotriene C4 synthase) | IC50 (Interstitial collagenase) | IC50 (Estrogen receptor beta)

O=C(NCCN1CCOCC1)c1ccc(Cl)cc1 [MOCLOBEMIDE]
Not Active: IC50 (B2 bradykinin receptor) | IC50 [1] | IC50 [2] | Ki [2] | IC50 [3] | IC50 [4] | IC50 (Leukotriene C4 synthase) | IC50 (Interstitial collagenase) | IC50 (Estrogen receptor beta)

OC[C@H]1O[C@@H]2O[C@H]3[C@H](O)[C@@H](O)[C@@H](O[C@H]4[C@H](O)[C@@H](O)[C@@H](O[C@H]5[C@H](O)[C@@H](O)[C@@H](O[C@H]6[C@H](O)[C@@H](O)[C@@H](O[C@H]7[C@H](O)[C@@H](O)[C@@H](O[C@H]1[C@H](O)[C@H]2O)O[C@@H]7CO)O[C@@H]6CO)O[C@@H]5CO)O[C@@H]4CO)O[C@@H]3CO [ALFADEX]
Not Active: IC50 (B2 bradykinin receptor) | IC50 [1] | IC50 [2] | Ki [2] | IC50 [3] | IC50 [4] | IC50 (Leukotriene C4 synthase) | IC50 (Interstitial collagenase) | IC50 (Estrogen receptor beta)

O=c1[nH]c2ccccc2c2ccccc12
Not Active: IC50 (B2 bradykinin receptor) | IC50 [1] | IC50 [2] | Ki [2] | IC50 [3] | IC50 [4] | IC50 (Leukotriene C4 synthase) | IC50 (Interstitial collagenase) | IC50 (Estrogen receptor beta)
